# Results: a melting point compilation (Tetko et al.; mined from patent text by program, amines drawn as free bases though some values may be those of a salt)
row,melting point [°C],SMILES
1,135 to 138,COc1ccc2c(c1)-c1noc(O)c1CC2
2,166 to 167,N#Cc1ccccc1Cn1cc(-c2ccnc(NCCCO)n2)n(-c2ccc(F)cc2)c1=O
3,146,COC(=O)c1ccc(N)c(S(C)(=O)=O)c1
4,160 to 161,O=C(Oc1ccc(Oc2ccc(C(F)(F)F)cn2)cc1)N1CCN(c2cnccn2)CC1
5,124 to 127,Cc1ccc2c(c1)CC1(CCC(=O)CC1)C21OCCO1
6,208 to 209,CS(=O)(=O)c1ccc(-n2nc(C(F)(F)F)cc2-c2nc3c(F)cccc3s2)cc1
7,182 to 184,Nc1ncnc2c1c(CCCO)nn2Cc1oc2ccccc2c(=O)c1-c1ccccc1
8,246,N#Cc1c(N)ccc2cc(Cl)cnc12
9,141 to 144,COC(=O)/C=C/c1cncc(-c2ccc(C)cc2)c1
10,155 to 157,CCCCOCCOc1ccc(-c2ccc3c(c2)C=C(C(=O)Nc2ccc(O)cc2)CCN3CC(C)C)cc1
11,127 to 129,Cc1ccccc1-c1cc(C#N)cc2c1OC(CN)C2 (stereo not drawn)
12,174,O=C(NCc1ccncc1)N(c1ccccc1)c1ccccc1
13,120 to 122,CC1CCC(N2c3ccccc3Oc3c(Cl)cccc32)=N1 (stereo not drawn)
14,164 to 166,Cc1cc(Cl)cc(NC(=O)Cc2ccc(OC3(C(=O)O)CCC(C)C3)cc2)c1 (stereo not drawn)
15,105 to 108,CCOC(=O)c1nc(O)sc1C(=O)CBr
16,254 to 255,CC(C)NC(=O)c1n[nH]cc1NC(=O)c1ccccn1
17,133 to 134,N#Cc1ccc2oc(CCCCCc3cc4cc(C#N)ccc4o3)cc2c1
18,92.5 to 93,Cc1ccc(CON2C(C)(C)CC(O)CC2(C)C)cc1
19,189 to 191,COC(=S)NC[C@H]1CN(c2ccc(-c3nc(Cn4cncn4)cs3)c(F)c2)C(=O)O1
20,225 to 227,Cc1cc(-n2ccc(OCc3ccc(C(F)(F)F)cc3)cc2=O)sc1C(=O)NCc1ccccc1
21,70,O=C(CCl)N1CCC(Cc2ccc(Cl)cc2)CC1
22,286 to 288,CC(=O)OC(CN1C(=O)N(C(C)=O)C2(CC(C)(C)N(C(C)=O)C(C)(C)C2)C1=O)CN1C(=O)N(C(C)=O)C2(CC(C)(C)N(C(C)=O)C(C)(C)C2)C1=O
23,253 to 255,N#Cc1cnc2cc3ccccc3cc2c1Cl

row,melting point [°C],SMILES
1,220 to 223,COc1cc(N)c(Cl)cc1C(=O)NCC1CCN(CCS(=O)(=O)Cc2ccccc2)CC1
2,119 to 120,Cc1nc2ccc(NCCCN3CCC(OC(c4ccccc4)c4ccccc4)CC3)nn2n1
3,240 to 244,NC(=O)c1cccc(NS(=O)(=O)c2ccc([N+](=O)[O-])cc2)c1
4,115 to 116,C=CCn1c(C)c(C)c2cnnc(OCc3ccccc3)c21
5,107 to 108,CCCCCCn1c(=O)c2cn(CC)nc2n(C)c1=O
6,108 to 110,CN(Cc1cc2c3c(c1)c(=O)c(C(=O)NCc1ccc(F)cc1)cn3CC(=O)N2C)C[C@@H](O)c1cnccn1
7,68 to 71,COc1ccc(-c2cc3ccccc3n2C(C)=O)cc1
8,46 to 48,CCOP(=O)(CC(=O)N(CC)c1cn(-c2cccnc2)nc1Cl)OCC
9,132 to 140,CN(C(=O)Nc1ccc(Cl)c(Cl)c1)C(Cl)C(Cl)(Cl)Cl (stereo not drawn)
10,81 to 83,CC(=O)Nc1cccnc1Cl
11,252 to 253,C[C@@H]1O[C@](C#CC2CC2)(C(F)(F)F)c2c(ccc3c2OCO3)NC1=O (relative stereo)
12,145 to 148,COc1ccc(C(=O)N(C(=O)c2ccc(OC)cc2)c2nc3ccc([N+](=O)[O-])cc3c(NCc3ccccc3)c2C#N)cc1
13,112 to 114,O=S(=O)(c1ccccc1)c1ccc2c(c1)O[C@H](CO)CO2
14,188 to 189,Nc1c(F)c(N2CCC(C(N)c3ccco3)C2)c(F)c2c1c(=O)c(C(=O)O)cn2C1CC1F (stereo not drawn)
15,107 to 108,O=C1CCCN1C(=O)Oc1ccc(Br)cc1
16,141 to 142,CC#CC(C)(C)NC(=O)C(Oc1cc(Cl)nc(Cl)c1)SC (stereo not drawn)
17,300,O=C(O)c1cnc(Nc2ccccc2F)[nH]c1=O
18,165 to 167,CC(C)Sc1c(-c2ccc(S(C)(=O)=O)cc2)cnn(CC(F)(F)F)c1=O
19,198 to 202,CCN1CCN(CC(=O)OCCOC)C(=O)c2ccc(Nc3ncc(Cl)c(Nc4ccccc4C(=O)NC)n3)cc21
20,96 to 98,COc1cccc(C2CCCN(C(=O)N(C)O)C2)c1 (stereo not drawn)
21,55.5 to 56.7,CCCOc1ccc(C(=O)CC(=O)C(C)(C)C)cc1OC
22,120 to 124,CCC(O)(c1cccc(NS(=O)(=O)CC)c1)c1c[nH]cn1 (stereo not drawn)

# More lines, now with the values behind:
row,SMILES,melting point [°C]
1,OCCCNc1cc(-c2ccnc(Nc3cccc(C(F)(F)F)c3)n2)ccn1,158 to 163
2,Cc1oc(-c2ccccc2)nc1COc1cccc(CSc2cccc(C(=O)O)c2)c1,129 to 130
3,CCOC(=O)Cn1c(=O)n(Cc2ccc(Cl)cc2)c(=O)c2ccccc21,137
4,C/C(=C/CO)c1cc2c(cc1O)C(C)(C)CCC2(C)C,144 to 145
5,CCn1c2ccccc2c2c3c(c(-c4ccccc4Cl)cc21)C(=O)NC3O (stereo not drawn),225 to 228
6,CCCCCCCCCCCCCCCCOc1ccc(O)cc1,87 to 88
7,Cc1nc(C(C)(C)C)c(O)c(C(C)(C)C)n1,62 to 65
8,C=CCn1nnc2cc(F)c(-n3c(=O)cc(C(F)(F)F)n(C)c3=O)cc21,136 to 138
9,CC1(c2ccccc2)C(=O)c2c(cc(OCC(=O)O)c(Cl)c2Cl)C1c1ccccc1 (stereo not drawn),203 to 205
10,O=Cc1c(F)ccc(Cl)c1Cl,55 to 57
11,Cc1cc2c(cc1C(C)SCC(N)=O)OCO2 (stereo not drawn),121 to 122
12,Cc1ccc(-c2nc(Cl)nc(Cl)c2-c2ccccc2)cc1,130 to 132
13,CC(C(=O)n1c(=O)oc2ccccc21)C(O)C(C)(C)C (stereo not drawn),90 to 92
14,CCN1C(=O)C(Cl)(Cl)c2cc3sccc3cc21,143 to 144
15,CCCCCS(=O)(=O)NC(=O)/C=C/c1ccc(OCCOC)cc1Nc1ccc(C(F)(F)F)cc1Cl,174 to 175
16,CCOC(=O)c1ncn2c1COc1ccccc1-2,135 to 137
17,C[C@H](NC(=O)Cc1ccccc1)C(=O)N[C@@H]1C(=O)Nc2ccccc2O[C@@H]1c1ccccc1,122 to 136
18,O=C(C(=O)c1cccnc1)c1ccccc1,56 to 57
19,COc1ccccc1CNC(=O)c1ccc2c(c1)N(C(C)CN1CCCC1)c1ccccc1S2 (racemic),127
20,CN(C)C(=O)c1cc(C#N)cnc1Cl,148 to 153

row,SMILES,melting point [°C]
1,CC(C)C(C)(NC(=O)c1nc2ccccc2cc1C(=O)O)C(N)=O (stereo not drawn),172 to 174
2,O=C1CN(C/C=C/c2ccc(Cl)cc2)CCN1c1cc(F)ccc1[N+](=O)[O-],57
3,C[C@@H](S[C@H]1CO[C@H](c2ccc(C(=O)NCc3ccc(C#N)cc3)cc2)OC1)[C@](O)(Cn1cncn1)c1ccc(F)cc1F,188
4,CN1C(=O)[C@@](NC(=O)Nc2cccc(CNc3nnn[nH]3)c2)(C2CCCCC2)N=Cc2ccccc21,175 to 178
5,CN(c1ncnc2c1ncn2Cc1ccccc1F)n1cccc1,147 to 149
6,O=c1[nH]c2c(O)cccc2c(=O)n1CCCN1CC=C(c2ccc(Cl)cc2)CC1,284 to 286
7,Fc1ccc2c(C3CCN(CCCOc4ccccc4)CC3)noc2c1,78 to 80
8,CCOCc1nc2c(N)nc3ccccc3c2n1CC(C)(C)OCCS(=O)(=O)c1ccccc1,187 to 189
9,Cc1c(C)c(N2CCN(c3ccc(C#N)cc3)CC2)c(C)c2c1OC(C)(C)C2,255 to 257
10,OC(Cc1ccc2ccccc2n1)C(Cl)(Cl)Cl (stereo not drawn),156 to 158
11,CC(C)CNS(=O)(=O)CCCCl,68 to 69
12,O=C(Cl)c1cc([N+](=O)[O-])ccc1F,59 to 60
13,CC(=O)n1ncc2cc(C)c([N+](=O)[O-])cc21,180 to 182
14,O=c1c(Cc2cccnc2)cn2c3c(cc(Cl)cc13)Oc1cc(Cl)ccc1-2,170 to 171
15,CC1(C)CC(=O)N(C(=O)Nc2ccccc2)CC(C)(C)N1O,112 to 114
16,CC(C)C(=O)OCC(=O)C12OC(C3CCCCC3)OC1CC1C3CCC4=CC(=O)C=CC4(C)C3C(O)CC12C (stereo not drawn),210 to 211
17,COc1cc(Cl)nc(N(C=O)c2ccccc2)n1,118 to 120
18,COc1ccccc1C(=O)ON1C(=O)CCC1=O,180 to 182
19,COc1cc(Cl)c2c(c1)CCN2c1cc(NC(C)C2CCC2)nc(C)n1 (stereo not drawn),125 to 128
20,CC(C)(C)OC(=O)NCCNc1nnc(N)s1,219 to 220

row,SMILES,melting point [°C]
1,COc1cccc(NC(=N)Nc2cccc(OC)c2)c1,134 to 135
2,CCOc1c(C(=O)c2cccs2)cnc2c1cnn2Cc1ccco1,85 to 87
3,CC1(C=NO)OCCc2c1[nH]c1ccccc21 (stereo not drawn),176 to 178
4,CC1(C)OC(=S)Nc2ccc(-c3cc(Cl)cc(Cl)c3)cc21,206 to 208
5,Cc1nc2c(N)nc3cnccc3c2n1CC(C)C,322 to 324
6,CCOC(=O)c1cc([N+](=O)[O-])cc(Br)c1O,108
7,O=C(Cc1ccc(O)cc1)c1ccc(O)cc1O,186
8,N#Cc1ccc(CC2CCN(C(=O)c3ccc(Cl)cc3)CC2)cc1,137 to 139
9,CC(=O)c1ccc(-c2cccc(C(F)(F)F)c2)o1,105 to 109
10,Cc1cccc2c1C(=O)C(COC(=O)Nc1ccccc1)(COC(=O)Nc1ccccc1)CS2=O (stereo not drawn),76 to 82
11,CCn1c(C)nc(N2CCc3ccccc3CC2)c(C#N)c1=O,154 to 158
12,CCCn1c(=O)c2c(nc(/C=C/c3cc(OC)c(OC)c(OC)c3)n2C)n(CCC)c1=O,168 to 169
13,CCc1cc([N+](=O)[O-])c(N)cc1Cl,100 to 101
14,O=C(c1cc2ccc(Br)cc2o1)C12CC3CC(CC(C3)C1)C2,128 to 130
15,CC(C)CC(C)Oc1c(-c2ccc(S(C)(=O)=O)cc2)cnn(-c2ccc(F)c(F)c2)c1=O (stereo not drawn),132 to 133
16,CCCCCCCCCCCCOc1ccc(C(=O)O)o1,122 to 123
17,Cc1noc(C)c1C(C)(O)c1ccsc1 (stereo not drawn),93.5 to 95
18,Nc1nc(=O)n(C(=O)NC2CCCC2)cc1F,294 to 297
